Experimental data: patent US20020103136A1, “Conjugates useful in the treatment of prostate cancer” (priority 1998, published 2002)
Where two headings read alike, the source gives them in different places. Square brackets hold non-standard residues; d marks the D form. HCAP = (1S,2R)-(+)-2-hydroxy-3-cyclohexylisopropylamine linker; dAc‑VIN = 4-des-acetylvinblastine; Chg = N[C@H](C(=O)O)C1CCCCC1; Abu = CC[C@H](N)C(=O)O; VIN = not defined here; GABA = NCCCC(=O)O

Tests used:
[1] = system: LNCap prostate tumor cells; assay: In vitro cytotoxicity, Alamar Blue assay, LNCaP cell kill in 72 hrs; type: cell-based; conditions: read-out: LNCaP Cell Kill in 72 HRS EC5O
Experimental: (§1) The cytotoxicities of the vinca alkaloid derivatives, prepared as described in Example 1, and the cleaveable oligopeptide-vinca drug conjugates, prepared as described in Examples 2 and 2A, against a line of cells which is known to be killed by unmodified vinca drug was assessed with an Alamar Blue assay. Specifically, cell cultures of LNCap prostate tumor cells, Colo320DM cells (also designated C320), T24 bladder carcinoma cells or T47D breast carcinoma cells in 96 well plates was diluted with medium containing various concentrations of a given conjugate (final plate well volume of 200 μl). The cells were incubated for 3 days at 37° C., 20 μl of Alamar Blue is added to the assay well. The cells were further incubated and the assay plates were read on a EL-310 ELISA reader at the dual wavelengths of 570 and 600 nm at 4 and 7 hours after addition of Alamar Blue. Relative percentage viability at the various concentration of conjugate tested was then calculated versus control (no cytotoxic agent or conjugate) cultures. Unless otherwise indicated, the TFA salt of the cytotoxic agent and the acetate salt of the conjugate were tested.

[2] = system: Colo320DM cells (also designated C320); assay: In vitro cytotoxicity, Alamar Blue assay, Colo320DM cells; type: cell-based; conditions: Table 5, value in parentheses, acetate salt unless otherwise indicated, read-out: Cell Kill in 72 HRS EC5O, Colo320DM
Experimental: as §1

[3] = target: T1, enzymatically active free PSA (Homo sapiens, UniProt P07288); assay: Recognition/cleavage of oligopeptide-vinca drug conjugates by free PSA (HPLC); type: biochemical; conditions: pH 7.4; for Time to 50% Substrate Cleavage by York PSA: conjugate:PSA molar ratio 100 to 1, acetate salt unless otherwise indicated, n > 1 value is an average
T1 construct: 50% cleavage of the noted oligopeptide-cytotoxic agent conjugates with enzymatically active free PSA; purchased York
T1 sequence (P07288 25-261): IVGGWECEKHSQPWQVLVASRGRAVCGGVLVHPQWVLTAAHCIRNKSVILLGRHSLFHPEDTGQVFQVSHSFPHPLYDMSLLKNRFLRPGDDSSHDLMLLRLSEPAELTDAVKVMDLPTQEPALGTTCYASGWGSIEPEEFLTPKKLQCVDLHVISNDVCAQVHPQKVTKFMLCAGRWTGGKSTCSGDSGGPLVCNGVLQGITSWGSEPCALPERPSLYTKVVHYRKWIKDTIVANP
Experimental: The conjugates prepared as described in Example 3 were individually dissolved in PSA digestion buffer (50 mM tris(hydroxymethyl)-aminomethane pH7.4, 140 mM NaCl) and the solution added to PSA at a molar ration of 100 to 1. Alternatively, the PSA digestion buffer utilized is 50 mM tris(hydroxymethyl)-aminomethane pH7.4, 140 mM NaCl. The reaction is quenched after various reaction times by the addition of trifluoroacetic acid (TFA) to a final 1% (volume/volume). Alternatively the reaction is quenched with 10 mM ZnCl2. The quenched reaction was analyzed by HPLC on a reversed-phase C18 column using an aqueous 0.1% TFA/acetonitrile gradient. […] Unless otherwise indicated, the acetate salt of the conjugate was tested.

[4] = system: T24 bladder carcinoma cells; assay: In vitro cytotoxicity, Alamar Blue assay, T24 cells; type: cell-based; conditions: read-out: Cell Kill in 72 HRS EC5O, T24
Experimental: as §1

[5] = Lability in mouse serum (remark in Table 5); type: in vitro ADME; conditions: remark in the Table 5 cell
[6] = Table 5, 3 days, acetate salt of conjugate unless otherwise indicated

Ac-AbuSSChgQ-S-(HCAP)-VIN (Ac-[Abu]SS[Chg]QS-{HCAP-VIN}; reading uncertain)
EC50 [1, 6]: 6.1 µM | EC50 [2]: 7.8 µM | Substrate cleavage by York PSA at 1 HOUR ([3]; 1 hour, conjugate:PSA 100 to 1): 28%

Ac-SChgQSS-Sar-(HCAP)-dAc-VIN (XXQSSX; not fully specified; N-methyl; non-natural residues; cyclised or stapled)
Time to 50% Substrate Cleavage by York PSA [3]: 13 min

Ac-SSChgQ-SP-(HCAP)-(dAc)-VIN (Ac-SS[Chg]QSP-{HCAP-dAc‑VIN}; not fully specified)
EC50 [1, 6]: 10.2 µM | EC50 [2]: 29.5 µM | Time to 50% Substrate Cleavage by York PSA [3]: 30 min

Ac-SChgQSS(PIP)-(HCAP)-dAc-VIN (XXQSSX; non-natural residues; cyclised or stapled)
Time to 50% Substrate Cleavage by York PSA [3]: 22 min

Ac-SChgQ-SP-(HCAP)-(dAc)-VIN (Ac-S[Chg]QSP-{HCAP-dAc‑VIN})
EC50 [1, 6]: 7.8 µM | EC50 [2]: 15.7 µM | Time to 50% Substrate Cleavage by York PSA [3]: 13 min

Ac-SChgQS-Abu-(HCAP)-VIN (Ac-S[Chg]QS[Abu]-{HCAP-VIN}; reading uncertain)
EC50 [1, 6]: 0.8 µM | EC50 [2]: 2 µM | Time to 50% Substrate Cleavage by York PSA [3]: 60 min

Ac-AbuSChgQ-SP-(HCAP)-(dAc)-VIN
EC50 [1, 6]: 4.1 µM | EC50 [2]: 15.7 µM | Time to 50% Substrate Cleavage by York PSA [3]: 17 (n = 2) Min

Ac-SChgQSS-gammaAbu-(HCAP)-dAc-VIN (Ac-S[Chg]QSS[GABA]-{HCAP-dAc‑VIN}; not fully specified)
EC50 [1, 6]: 2.3 µM | EC50 [2]: 4.3 µM | Time to 50% Substrate Cleavage by York PSA [3]: 12 min

Ac-4-trans-L-HypSSChgQSP(HCAP)-VIN (XSSXQSX; non-natural residues; cyclised or stapled)
EC50 [1, 6]: 5.5 µM | EC50 [2]: 15.6 µM | Time to 50% Substrate Cleavage by York PSA [3]: 8 min

Ac-SChgQ-SS(4-trans-L-Hyp)-(HCAP)-dAc-VIN (XXQSSX; non-natural residues; cyclised or stapled)
EC50 [1, 6]: 5.9 µM | EC50 [2]: 10.4 µM | Time to 50% Substrate Cleavage by York PSA [3]: 7 min

4-des-Acetylvinblastine-23-(N-hydroxyacetyl-Abu-Ser-Ser-Chg-Gln-Ser-Pro-HCAP) amide (XSSXQSP; non-natural residues; cyclised or stapled)
EC50 [1, 6]: 2 µM | EC50 [2]: 12.6 µM | Time to 50% Substrate Cleavage by York PSA [3]: 11 min

Ac-AbuSSChgQ-SP-(HCAP)-(dAc)-VIN (XSSXQSP; non-natural residues; cyclised or stapled)
EC50 [1, 6]: 2 µM | EC50 [2]: 15.7 µM | Time to 50% Substrate Cleavage by York PSA [3]: 18 min

Ac-4-trans-L-Hyp-SSChgQ-SS-(HCAP)-(dAc)-VIN (XSSXQSS; non-natural residues; cyclised or stapled)
EC50 [1, 6]: 2 µM | EC50 [2]: 5 µM | Time to 50% Substrate Cleavage by York PSA [3]: 17 min

CC[C@]1(O)C[C@@H]2CN(CCc3c([nH]c4ccccc34)[C@@](C(=O)OC)(c3cc4c(cc3OC)N(C)[C@H]3[C@@](O)(C(=O)OC)[C@H](OC(C)=O)[C@]5(CC)C=CCN6CC[C@]43[C@@H]65)C2)C1 [VINBLASTINE, vinblastine]
EC50 ([1]; Homo sapiens, 72 h, Table 3, 3 days, TFA salt of cytotoxic agent unless otherwise indicated): 0.5 µM | EC50 ([4]; Homo sapiens, T-24, 72 h, Table 3, value in parentheses): < 0.08 µM | EC50 ([4]; Table 5, value in parentheses): < 0.08 µM

4-des-Acetylvinblastine-23-(N-Acetyl-4-trans-L-Hyp-Ser-Ser-Chg-Gln-Ser-HCAP) Amide Acetate Salt
EC50 [1, 6]: 3.4 µM | EC50 [2]: 4.6 µM | Time to 50% Substrate Cleavage by York PSA [3]: 15 min

Ac-4-trans-L-HypSSChgQS-cyclopropylalaninol-(dAc)-VIN
EC50 [1, 6]: 1.5 µM | EC50 [2]: 7.5 µM | Time to 50% Substrate Cleavage by York PSA [3]: 45 min

Ac-SChgQSS(HCAP)-dAc-VIN (Ac-S[Chg]QSS-{HCAP-dAc‑VIN})
EC50 [1, 6]: 1.4 µM | EC50 [2]: 1.4 µM | Time to 50% Substrate Cleavage by York PSA [3]: 12 min

Ac-4-trans-L-HypSSChgQS-cyclohexylalaninol-(dAc)-VIN (XSSXQSX; non-natural residues; cyclised or stapled)
EC50 [1, 6]: 0.3 µM | EC50 [2]: 2.6 µM | Time to 50% Substrate Cleavage by York PSA [3]: 10 min

4-des-Acetylvinblastine-23-(N-Acetyl-Ser-Chg-Gln-Ser-Ser-Pro-HCAP) Amide Acetate Salt (SXQSSX; non-natural residues; cyclised or stapled) [Ac-SChgQ-SSP-(HCAP)-VIN]
EC50 [1, 6]: 7.8 µM | EC50 [2]: 15.7 µM | Time to 50% Substrate Cleavage by York PSA [3]: 8 min

CC[C@]1(O)CC2CN(CCc3c([nH]c4ccccc34)[C@@](C(=O)OC)(c3cc4c(cc3OC)N(C)C3C45CCN4CC=C[C@](CC)(C45)[C@@H](O)[C@]3(O)C(=O)N[C@H](COC(=O)[C@H](CO)NC(=O)[C@H](CCC(N)=O)NC(=O)[C@@H](NC(=O)[C@H](CO)NC(=O)[C@H](CO)NC(=O)[C@@H]3C[C@@H](O)CN3C(C)=O)C3CCCCC3)Cc3ccccc3)C2)C1 (stereo partly shown)
Time to 50% Substrate Cleavage by York PSA [3]: 25 min | Stability in mouse serum [5]: labile

Ac-SSChgQ-SSP-(HCAP)-dAc-VIN (XSXQSSX; not fully specified; non-natural residues; cyclised or stapled)
EC50 [1, 6]: 2.6 µM | EC50 [2]: 6.3 µM | Time to 50% Substrate Cleavage by York PSA [3]: 8 min
